In patent publication US10196363B2, “Dihydropyrimidin-2-one compounds and medical use thereof” (JAPAN TOBACCO INC., priority 2014, dated 2019):
Read-outs that look alike come from different tables or passages of the source.

Legend:
mouse RORγ = biological target: T1, mouse RORγ (Mus musculus, UniProt P51450); experiment: In vitro assay of inhibitory effect against RORγ transcriptional activity (GAL4-mRORγ LBD luciferase reporter gene assay in CHO cells); type: cell-based; settings: for mRORγ luciferase activity, %-of-control: vehicle-control 0.2% DMSO alone = 100%
T1 construct: mouse RORγ, from Ile251 to Lys516; expressed in transfected cells; host or cells: CHO cells (Chinese hamster ovary), transient co-transfection with pG5-Luc
T1 sequence (P51450 251-516): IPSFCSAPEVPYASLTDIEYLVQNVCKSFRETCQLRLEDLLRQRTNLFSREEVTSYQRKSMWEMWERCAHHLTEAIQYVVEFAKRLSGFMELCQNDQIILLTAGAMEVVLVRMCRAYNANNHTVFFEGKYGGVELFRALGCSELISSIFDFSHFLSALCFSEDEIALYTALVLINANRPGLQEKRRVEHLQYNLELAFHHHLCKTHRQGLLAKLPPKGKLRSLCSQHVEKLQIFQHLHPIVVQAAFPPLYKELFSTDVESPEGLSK
In short: (§1)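 CHO cells, transient GAL4-RORγ LBD + pG5-Luc; cmpd 8 conc, 0.2% DMSO, 2 d, 37 °C, 5% CO2. SteadyLite luminescence, %-of-DMSO control (100%), EC50 by curve fit. Cytotoxic concentrations (resazurin) excluded.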

human RORγ = biological target: T2, human RORγ (Homo sapiens, UniProt P51449); experiment: In vitro assay of inhibitory effect against RORγ transcriptional activity (GAL4-hRORγ LBD luciferase reporter gene assay in CHO cells); type: cell-based; settings: for hRORγ luciferase activity, %-of-control: vehicle-control 0.2% DMSO alone = 100%
T2 construct: human RORγ, from Ser253 to Lys518; expressed in transfected cells; host or cells: CHO cells (Chinese hamster ovary), transient co-transfection with pG5-Luc
T2 sequence (P51449 253-518): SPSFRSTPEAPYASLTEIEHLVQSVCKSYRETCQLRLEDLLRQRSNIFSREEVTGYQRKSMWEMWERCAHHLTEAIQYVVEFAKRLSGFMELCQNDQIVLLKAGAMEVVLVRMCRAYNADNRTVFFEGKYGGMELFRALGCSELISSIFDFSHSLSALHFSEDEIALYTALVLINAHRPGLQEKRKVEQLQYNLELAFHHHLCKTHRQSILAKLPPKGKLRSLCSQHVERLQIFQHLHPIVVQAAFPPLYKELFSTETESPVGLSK
In short: as §1

[1] = GAL4-mRORγ LBD luciferase reporter, CHO cells, read-out: LUC EC50 mRORγ
[2] = GAL4-hRORγ LBD luciferase reporter, CHO cells, read-out: LUC EC50 hRORγ
[3] = GAL4-mRORγ LBD / pG5-Luc in CHO cells, 2 days incubation
[4] = value in parentheses beside the > EC50 bound
[5] = GAL4-hRORγ LBD / pG5-Luc in CHO cells, 2 days incubation
[6] = value in parentheses beside the EC50 bound

| EC50 (mouse RORγ; [1]) [µM] | EC50 (human RORγ; [2]) [µM] | EC50 (mouse RORγ; [3]) [µM] | EC50 (human RORγ; [5]) [µM] | SMILES | further results |
| --- | --- | --- | --- | --- | --- |
| 0.296 | 0.273 | – | – | CC(C)C1=CN(C2CCCC(C(=O)O)C2)C(=O)N[C@@]1(C)c1ccc(CCC(C)(C)C)c(Cl)c1 (single isomer, unassigned) [Example 255] | – |
| 0.03 | 1.35 | – | – | CC(C)C1=CN(CCC(=O)O)C(=O)N[C@@]1(C)c1ccc(C=C2CCC(C)(C)CC2)c(Cl)c1 [Example 285] | – |
| – | – | > 8 | > 8 | CC(C)C1=CN(CCC(=O)O)C(=O)N[C@]1(C)c1ccc(CCC2CC(C)(C)C2)c(Cl)c1 [Example 141] | mRORγ luciferase activity, %-of-control (mouse RORγ; [4]): (52%); hRORγ luciferase activity, %-of-control (human RORγ; [4]): (57%) |
| – | – | 0.011 | 0.022 | CC(C)C1=CN(CCC(=O)O)C(=O)N[C@@]1(C)c1ccc(C2CC3(CCC3)C2)c(Cl)c1 [Example 173] | – |
| > 20 | > 20 | – | – | CC(C)CC[S+]([O-])c1ccc([C@]2(C)NC(=O)N(CCC(=O)O)C=C2C(C)C)cc1Cl (mixture of isomers) [Example 217] | mRORγ luciferase activity, %-of-control (mouse RORγ; [6]): (77%); hRORγ luciferase activity, %-of-control (human RORγ; [6]): (90%) |
| – | – | 0.032 | 0.055 | CC(C)C1=CN(CCCC(=O)O)C(=O)NC1(C)c1ccc(OCC(C)(C)C)c(Cl)c1 (racemic) [Example 9] | – |
| – | – | 1.13 | 2.61 | CC(C)=Cc1ccc(C2(C)NC(=O)N(CCCC(=O)O)C=C2C(C)C)cc1 (racemic) [Example 188] | – |
| 0.018 | 0.009 | – | – | CC(C)C1=CN(c2ccc(C(=O)O)cc2F)C(=O)N[C@@]1(C)c1ccc(CCC(C)(C)C)c(Cl)c1 [Example 207] | – |
| – | – | 0.028 | 0.051 | CC(C)C1=CN(CCCCC(=O)O)C(=O)NC1(C)c1ccc(OCC(C)(C)C)c(Cl)c1 (racemic) [Example 18] | – |
| – | – | 0.018 | 0.015 | CC1=C(C(C)C)C(C)(c2ccc(CCC(C)(C)C)c(Cl)c2)NC(=O)N1CCCC(=O)O (racemic) [Example 90] | – |
| 0.014 | 0.019 | – | – | COCCC1=CN(C23CCC(C(=O)O)(C2)C3)C(=O)N[C@@]1(C)c1ccc([C@H]2C[C@@H](C(C)C)C2)c(Cl)c1 [Example 330] | – |
| – | – | 2.49 | 2.58 | CC(C)(C)CCc1ccc(C2(C)NC(=O)N(CCCC(=O)O)C=C2C2CN(S(C)(=O)=O)C2)cc1Cl (racemic) [Example 81] | – |
| 0.072 | 0.069 | – | – | CC(C)C1=CN(C2CC3(CC(C(=O)O)C3)C2)C(=O)N[C@@]1(C)c1ccc(CCC(C)(C)C)c(Cl)c1 (single isomer, unassigned) [Example 233] | – |
| 0.014 | 0.022 | – | – | COCCC1=CN(c2ccc(C(=O)O)cn2)C(=O)N[C@@]1(C)c1ccc(C2=CCC(C)(C)CC2)c(Cl)c1 [Example 334] | – |
| 0.038 | 0.023 | – | – | COC1CC(C2=CN(c3ccc(C(=O)O)cc3)C(=O)N[C@@]2(C)c2ccc(CCC(C)(C)C)c(Cl)c2)C1 (single isomer, unassigned) [Example 277] | – |
| – | – | 0.011 | 0.015 | CC(C)CC1=CN(CCC(=O)O)C(=O)N[C@@]1(C)c1ccc(CCC(C)(C)C)c(Cl)c1 [Example 137] | – |
| – | – | > 8 | > 8 | CC(C)C1=CN(CCC(=O)O)C(=O)N[C@]1(C)c1ccc(CCc2ccccc2)c(Cl)c1 [Example 143] | mRORγ luciferase activity, %-of-control (mouse RORγ; [4]): (100%); hRORγ luciferase activity, %-of-control (human RORγ; [4]): (90%) |
| 0.072 | 0.101 | – | – | COCCN1C=C(c2ccc(C(=O)O)cc2)[C@](C)(c2ccc(CCC(C)(C)C)c(Cl)c2)NC1=O [Example 225] | – |
| 0.021 | 0.03 | – | – | CC(C)C1=CN(c2ccc(C(=O)O)cc2)C(=O)N[C@@]1(C)c1ccc(COC(C)(C)C)c(Cl)c1 [Example 203] | – |
| – | – | 0.022 | 0.011 | CC(C)(C)CCc1ccc(C2(C)NC(=O)N(C3CCC3)C=C2C(C)(C)CCC(=O)O)cc1Cl (single isomer, unassigned) [Example 184] | – |
| – | – | 0.021 | 0.013 | CCC(C)C1=CN(CCCC(=O)O)C(=O)NC1(C)c1ccc(CCC(C)(C)C)c(Cl)c1 (single isomer, unassigned) [Example 34] | – |
| 0.013 | 0.023 | – | – | COCCC1=CN(c2ccc(C(=O)O)c(OC)c2)C(=O)N[C@@]1(C)c1ccc(C2=CCC(C)(C)CC2)c(Cl)c1 [Example 333] | – |

| EC50 (mouse RORγ; [1]) [µM] | EC50 (human RORγ; [2]) [µM] | EC50 (mouse RORγ; [3]) [µM] | EC50 (human RORγ; [5]) [µM] | SMILES | further results |
| --- | --- | --- | --- | --- | --- |
| 0.071 | 0.045 | – | – | COC(=O)[C@H]1C[C@H](N2C=C(C(C)(C)CCCO)[C@](C)(c3ccc(CCC(C)(C)C)c(Cl)c3)NC2=O)C1 (single isomer, unassigned) [Example 191] | – |
| – | – | > 8 | > 8 | CC(C)C1=CN(CCC(=O)O)C(=O)N[C@]1(C)c1ccc(C2=CCCC2)c(Cl)c1 [Example 148] | mRORγ luciferase activity, %-of-control (mouse RORγ; [4]): (69%); hRORγ luciferase activity, %-of-control (human RORγ; [4]): (57%) |
| 0.019 | 0.018 | – | – | CC(C)(C)CCc1ccc([C@]2(C)NC(=O)N(C34CC(C(=O)O)(C3)C4)C=C2C2CC(F)(F)C2)cc1Cl [Example 316] | – |
| 0.115 | 0.165 | – | – | CC(C)C1=CN(C2CCCC(C(=O)O)C2)C(=O)N[C@@]1(C)c1ccc(CCC(C)(C)C)c(Cl)c1 (single isomer, unassigned) [Example 257] | – |
| 0.032 | 0.067 | – | – | CC(C)(C)CCc1ccc([C@]2(C)NC(=O)N(C34CC(C(=O)O)(C3)C4)C=C2C2CC(F)(F)C2)cc1C(F)(F)F [Example 341] | – |
| 0.029 | 0.034 | – | – | C[C@@]1(c2ccc(OCCC3CCC3)c(Cl)c2)NC(=O)N(C23CC(C(=O)O)(C2)C3)C=C1C1CC(F)(F)C1 [Example 357] | – |
| 0.028 | 0.058 | – | – | CC(C)COc1c(F)cc([C@]2(C)NC(=O)N(CCC(=O)O)C=C2C(C)C)cc1Cl [Example 194] | – |
| – | – | 1.21 | 2.29 | CC(C)C1=CN(CCC(C)C(=O)O)C(=O)NC1(C)c1ccc(OCC(C)(C)C)c(Cl)c1 (single isomer, unassigned) [Example 19] | – |
| 0.015 | 0.021 | – | – | CC(C)C1=CN(c2ccc(C(=O)O)cc2)C(=O)N[C@@]1(C)c1ccc(CCC(C)(C)C)c(F)c1 [Example 356] | – |
| 0.028 | 0.013 | – | – | CC(C)(C)CCc1ccc([C@]2(C)NC(=O)N(C3CC(C)(C)C3)C=C2[C@H]2C[C@@H](C(=O)O)C2)cc1Cl [Example 251] | – |
| 0.071 | > 3.2 | – | – | CC(C)C1=CN(CCC(=O)O)C(=O)N[C@@]1(C)c1ccc([C@H]2C[C@@H](CC(C)(C)C)C2)c(Cl)c1 [Example 309] | hRORγ luciferase activity, %-of-control (human RORγ; [6]): (63%) |
| – | – | > 8 | > 8 | CC(C)C1=CN(CCC(C)(C)C(=O)O)C(=O)N[C@]1(C)c1ccc(CCC(C)(C)C)c(Cl)c1 [Example 54] | mRORγ luciferase activity, %-of-control (mouse RORγ; [4]): (81%); hRORγ luciferase activity, %-of-control (human RORγ; [4]): (92%) |
| – | – | 0.282 | 0.154 | CC(C)CC1=CN(CCCC(=O)O)C(=O)N[C@]1(C)c1ccc(CCC(C)(C)C)c(Cl)c1 [Example 37] | – |
| – | – | 0.018 | 0.012 | COCCN1C=C([C@H]2C[C@@H](C(=O)O)C2)C(C)(c2ccc(CCC(C)(C)C)c(Cl)c2)NC1=O (single isomer, unassigned) [Example 168] | – |
| 0.016 | 0.022 | – | – | CC(C)C1=CN(CCC(=O)O)C(=O)N[C@@]1(C)c1ccc([C@H]2C[C@@H](C(C)C)C2)c(Cl)c1 [Example 258, 3-{(S)-4-[3-Chloro-4-(3-isopropyl-cyclobutyl)-phenyl]-5-isopropyl-4-methyl-2-oxo-3,4-dihydro-2H-pyrimidin-1-yl}-propionic Acid] | – |
| – | – | 0.012 | 0.014 | CC(C)(C)CCc1ccc([C@]2(C)NC(=O)N(CCCC(=O)O)C=C2C2CC(F)(F)C2)cc1Cl [Example 146] | – |
| – | – | > 8 | > 8 | CC(C)C1=CN(CCC(=O)O)C(=O)N[C@]1(C)c1ccc(CCC2CCCC2)c(Cl)c1 [Example 119] | mRORγ luciferase activity, %-of-control (mouse RORγ; [4]): (76%); hRORγ luciferase activity, %-of-control (human RORγ; [4]): (74%) |
| 0.019 | 0.035 | – | – | CC(C)C1=CN(CCC(=O)O)C(=O)N[C@@]1(C)c1ccc(C2CCC(F)(F)CC2)c(Cl)c1 [Example 328] | – |
| – | – | 1.08 | 1.18 | CC(C)(C)CCc1ccc([C@@]2(C)NC(=O)N(CCCC(=O)O)C=C2C2(C)CC2)cc1Cl [Example 51] | – |
| – | – | 1.15 | 0.539 | CC(C)(C)CCc1ccc([C@@]2(C)NC(=O)N(CCCC(=O)O)C=C2C2CCOCC2)cc1Cl [Example 91] | – |
| – | – | 3.97 | 2.04 | CC(C)(C)CCc1ccc([C@@]2(C)NC(=O)N(CCCC(=O)O)C=C2C2CC(F)(F)C2)cc1Cl [Example 145] | – |
